This is an account of results in patent US7708990B2, “Coenzyme Q compositions persisting in blood” (Kaneka Corporation, priority 2004, dated 2010).

What is called Cmax is the maximum level reached in the sampled fluid or tissue. A word on the AUC: it is the area under the concentration-time curve, a measure of exposure.

The nature of the series: Plasma coenzyme Q10 levels after oral administration to rats (HPLC assay). Format: in vivo, male SD strain rats. To be noted: plasma coenzyme Q10 (reduced + oxidized), oral 100 mg/kg in soybean oil. On the procedure: A solution of reduced coenzyme Q10 (containing 1% by weight of oxidized coenzyme Q10) in soybean oil (reduced coenzyme Q10/soybean oil solution=20 mg/ml) was orally administered to male SD strain rats (6 weeks of age) at a dose of reduced coenzyme Q10 (containing 1% by weight of oxidized coenzyme Q10) of 100 mg/kg and, after 0.5, 1, 2, 3, 4, 5, 6, 8, 12 and 24 hours after administration, blood samples were collected and used for assaying plasma coenzyme Q10 (reduced coenzyme Q10 and oxidized coenzyme Q10) (n=4). Plasma coenzyme Q10 was assayed by HPLC. Thus, coenzyme Q7 (0.003 mg), ethanol (1 ml), distilled water (1 ml) and ferric chloride (0.01%) were added to each rat plasma sample (0.2 ml) and, after mixing up, hexane (3 ml) was added thereto and coenzyme Q10 was extracted with shaking. […]
Reduced coenzyme Q10 (containing 3% by weight of oxidized coenzyme Q10) was administered in the same manner as in Example 1, and plasma coenzyme Q10 levels were determined.
Oxidized coenzyme Q10 was administered in the same manner as in Example 1, and plasma coenzyme Q10 levels were determined.
Reduced coenzyme Q10 (containing 5% by weight of oxidized coenzyme Q10) was administered in the same manner as in Example 1, and plasma coenzyme Q10 levels were determined.

On to `COC1=C(OC)C(=O)C(C/C=C(\C)CC/C=C(\C)CC/C=C(\C)CC/C=C(\C)CC/C=C(\C)CC/C=C(\C)CC/C=C(\C)CC/C=C(\C)CC/C=C(\C)CCC=C(C)C)=C(C)C1=O` [Comparative Example 1, Oxidized coenzyme Q10], for which the Cmax (n=4) was 1730 ng/mL. Also, the AUC (n=4, sampling up to 24 hours) was 12900 ng·h/mL.
